Counter-ions that a name gives are not always drawn. Like-named read-outs stand apart in the source and are kept apart here.
Assays:
Type in all cases: biochemical
[1] = biological target: T1, human JAK2 (a.a. 828-1132) (Homo sapiens, UniProt O60674); test: In vitro JAK kinase assay (HTRF, phosphorylation of a biotinylated peptide), JAK2
T1 construct: JAK2 (a.a. 828-1132); His tag (N); made in house; host or cells: insect cells (baculovirus)
Method in brief: (§1)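 Phosphorylation of a biotinylated peptide by the JAK kinase domain, detected by HTRF with Eu-Py20 and SA-APC. ATP was 90 μM for JAK1, 30 μM for JAK2 and 3 μM for JAK3. Reactions ran 1 h at room temperature and were stopped with EDTA, followed by 40 min antibody binding.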

[2] = biological target: T2, human JAK1 (a.a. 837-1142) (Homo sapiens, UniProt P23458); test: In vitro JAK kinase assay (HTRF, phosphorylation of a biotinylated peptide), JAK1; settings: read-out: JAK1 IC50
T2 construct: human JAK1 (a.a. 837-1142); His tag (N); made in house; host or cells: insect cells (baculovirus)
T2 sequence (P23458 849-1154): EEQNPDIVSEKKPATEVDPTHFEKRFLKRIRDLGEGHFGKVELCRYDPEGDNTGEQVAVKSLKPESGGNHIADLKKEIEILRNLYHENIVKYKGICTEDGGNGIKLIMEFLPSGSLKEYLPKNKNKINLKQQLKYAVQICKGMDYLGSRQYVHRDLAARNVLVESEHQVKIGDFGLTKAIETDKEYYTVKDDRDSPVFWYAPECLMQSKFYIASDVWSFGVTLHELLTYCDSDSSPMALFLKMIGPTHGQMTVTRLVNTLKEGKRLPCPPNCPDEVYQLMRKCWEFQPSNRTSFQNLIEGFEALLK
Method in brief: as §1

[3] = biological target: T3, Recombinant Human Anaplastic Lymphoma Kinase (Homo sapiens, UniProt Q9UM73); test: ALK HTRF kinase assay
T3 construct: purchased Invitrogen, Carlsbad, Calif
T3 sequence (Q9UM73 19-1620): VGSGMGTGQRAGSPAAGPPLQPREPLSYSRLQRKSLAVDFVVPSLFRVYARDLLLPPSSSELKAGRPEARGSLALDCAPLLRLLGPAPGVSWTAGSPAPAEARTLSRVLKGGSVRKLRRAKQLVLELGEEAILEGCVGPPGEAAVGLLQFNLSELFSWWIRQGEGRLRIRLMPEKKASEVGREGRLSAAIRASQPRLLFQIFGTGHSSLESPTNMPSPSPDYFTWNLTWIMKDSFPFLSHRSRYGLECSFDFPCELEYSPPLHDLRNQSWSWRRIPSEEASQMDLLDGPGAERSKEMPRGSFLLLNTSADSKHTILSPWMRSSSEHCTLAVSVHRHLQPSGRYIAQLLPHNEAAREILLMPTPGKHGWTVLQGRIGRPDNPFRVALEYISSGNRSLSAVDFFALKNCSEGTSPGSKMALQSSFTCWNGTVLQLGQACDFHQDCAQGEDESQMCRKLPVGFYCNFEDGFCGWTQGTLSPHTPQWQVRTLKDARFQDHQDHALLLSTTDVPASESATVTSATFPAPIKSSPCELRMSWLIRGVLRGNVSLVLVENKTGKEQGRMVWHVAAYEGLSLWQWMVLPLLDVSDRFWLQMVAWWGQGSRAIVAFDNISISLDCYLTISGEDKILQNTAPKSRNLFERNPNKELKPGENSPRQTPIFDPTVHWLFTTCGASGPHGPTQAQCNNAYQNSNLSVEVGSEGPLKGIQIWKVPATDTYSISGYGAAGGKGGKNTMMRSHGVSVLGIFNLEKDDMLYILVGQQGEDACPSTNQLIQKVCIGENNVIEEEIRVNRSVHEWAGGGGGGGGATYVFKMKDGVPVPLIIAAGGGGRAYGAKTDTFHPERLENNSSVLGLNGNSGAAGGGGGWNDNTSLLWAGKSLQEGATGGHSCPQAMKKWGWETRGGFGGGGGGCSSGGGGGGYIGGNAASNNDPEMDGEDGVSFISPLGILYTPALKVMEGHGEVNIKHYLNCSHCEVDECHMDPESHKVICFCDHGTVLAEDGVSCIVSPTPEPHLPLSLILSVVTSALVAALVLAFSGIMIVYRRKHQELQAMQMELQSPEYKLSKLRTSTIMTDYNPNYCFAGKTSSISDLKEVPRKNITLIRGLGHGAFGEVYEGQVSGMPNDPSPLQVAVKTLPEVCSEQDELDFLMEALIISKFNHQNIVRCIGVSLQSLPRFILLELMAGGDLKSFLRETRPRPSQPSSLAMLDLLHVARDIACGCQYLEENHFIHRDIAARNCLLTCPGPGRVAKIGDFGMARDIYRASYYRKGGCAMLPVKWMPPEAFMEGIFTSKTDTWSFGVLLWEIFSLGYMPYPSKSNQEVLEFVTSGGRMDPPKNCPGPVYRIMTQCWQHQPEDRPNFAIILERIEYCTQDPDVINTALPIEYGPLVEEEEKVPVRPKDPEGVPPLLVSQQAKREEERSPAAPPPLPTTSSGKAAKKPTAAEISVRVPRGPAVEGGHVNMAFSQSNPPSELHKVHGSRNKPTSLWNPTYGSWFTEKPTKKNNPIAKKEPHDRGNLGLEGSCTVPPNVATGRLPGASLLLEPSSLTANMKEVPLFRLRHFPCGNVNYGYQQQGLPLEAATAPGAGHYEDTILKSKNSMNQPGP
Method in brief: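 Biotinylated peptide substrate, recombinant human ALK; detection via europium-chelate antibody to phosphotyrosine paired with streptavidin-APC. Potency expressed as IC50 from four-parameter curve fitting.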

[4] = biological target: T4, human JAK3 (a.a. 781-1124) (Homo sapiens, UniProt P52333); test: In vitro JAK kinase assay (HTRF, phosphorylation of a biotinylated peptide), JAK3
T4 construct: JAK3 (a.a. 781-1124); His tag (N); made in house; host or cells: insect cells (baculovirus)
T4 sequence (P52333 781-1124): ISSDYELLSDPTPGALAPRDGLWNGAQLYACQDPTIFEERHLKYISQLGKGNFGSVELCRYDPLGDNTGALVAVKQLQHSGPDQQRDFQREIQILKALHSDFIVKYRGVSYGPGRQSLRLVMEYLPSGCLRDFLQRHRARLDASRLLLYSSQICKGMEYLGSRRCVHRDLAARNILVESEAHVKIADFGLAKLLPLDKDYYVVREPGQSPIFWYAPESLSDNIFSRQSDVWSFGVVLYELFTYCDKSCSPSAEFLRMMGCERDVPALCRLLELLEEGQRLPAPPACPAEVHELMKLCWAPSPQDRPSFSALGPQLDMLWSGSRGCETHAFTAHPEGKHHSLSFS
Method in brief: as §1

TYK2 = TYK2 (Homo sapiens, UniProt P29597); test: TYK2 kinase inhibition (Table A1)
Sequence of TYK2 (P29597 whole entry): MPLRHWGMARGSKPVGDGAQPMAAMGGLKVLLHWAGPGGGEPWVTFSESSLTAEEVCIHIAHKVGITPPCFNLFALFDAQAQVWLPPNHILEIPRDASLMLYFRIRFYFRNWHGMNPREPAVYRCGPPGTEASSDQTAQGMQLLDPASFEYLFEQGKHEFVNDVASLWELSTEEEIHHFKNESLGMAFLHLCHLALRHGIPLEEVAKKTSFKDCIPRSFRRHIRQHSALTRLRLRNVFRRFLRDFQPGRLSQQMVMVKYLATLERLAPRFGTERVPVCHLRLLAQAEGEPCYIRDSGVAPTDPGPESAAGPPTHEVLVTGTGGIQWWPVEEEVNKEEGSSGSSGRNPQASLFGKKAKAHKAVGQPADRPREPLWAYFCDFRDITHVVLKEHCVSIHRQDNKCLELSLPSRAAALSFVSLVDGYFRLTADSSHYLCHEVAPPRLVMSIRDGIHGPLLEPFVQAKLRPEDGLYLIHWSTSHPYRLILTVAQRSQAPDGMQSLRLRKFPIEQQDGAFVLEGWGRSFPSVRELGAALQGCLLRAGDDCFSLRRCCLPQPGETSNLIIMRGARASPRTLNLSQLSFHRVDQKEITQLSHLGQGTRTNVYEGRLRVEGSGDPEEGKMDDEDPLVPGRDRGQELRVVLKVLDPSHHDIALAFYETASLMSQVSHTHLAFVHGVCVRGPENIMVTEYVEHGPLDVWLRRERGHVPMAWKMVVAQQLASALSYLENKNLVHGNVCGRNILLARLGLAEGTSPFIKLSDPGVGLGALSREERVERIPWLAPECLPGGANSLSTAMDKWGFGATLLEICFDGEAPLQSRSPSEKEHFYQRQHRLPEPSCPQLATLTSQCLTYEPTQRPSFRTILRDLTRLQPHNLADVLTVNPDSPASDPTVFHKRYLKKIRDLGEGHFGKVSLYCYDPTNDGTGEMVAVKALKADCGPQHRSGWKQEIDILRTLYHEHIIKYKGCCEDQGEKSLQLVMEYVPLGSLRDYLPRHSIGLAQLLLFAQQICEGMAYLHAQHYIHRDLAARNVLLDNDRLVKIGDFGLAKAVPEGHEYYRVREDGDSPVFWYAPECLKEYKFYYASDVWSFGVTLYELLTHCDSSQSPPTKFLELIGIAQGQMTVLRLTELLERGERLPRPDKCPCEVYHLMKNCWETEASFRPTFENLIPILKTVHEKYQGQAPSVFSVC

[5] = Table B1, cells without percent sign
[6] = method AA1 (30 μM ATP) or AA2 (1000 μM ATP), not stated per value
[7] = method AA1 (90 μM ATP) or AA2 (1000 μM ATP), not stated per value
[8] = compound at 500 nM or 1 mM, 90 μM ATP
[9] = method AA1 (3 μM ATP) or AA2 (1000 μM ATP), not stated per value
[10] = compound at a concentration of 500 nM or 1 mM (not specified), cells shown as percentage

T1 sequence (O60674 828-1132): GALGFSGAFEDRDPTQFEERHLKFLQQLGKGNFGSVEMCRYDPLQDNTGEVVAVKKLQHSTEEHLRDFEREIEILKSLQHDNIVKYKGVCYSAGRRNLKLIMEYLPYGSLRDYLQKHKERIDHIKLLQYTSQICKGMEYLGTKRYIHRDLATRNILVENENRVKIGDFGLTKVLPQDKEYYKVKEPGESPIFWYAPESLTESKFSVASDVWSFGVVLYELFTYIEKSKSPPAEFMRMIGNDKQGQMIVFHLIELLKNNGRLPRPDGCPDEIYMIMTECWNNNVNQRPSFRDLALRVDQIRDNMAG

Structure (SMILES)	IC50 ([1]; Table B1) [nM]	IC50 ([2]; Table B1) [nM]	IC50 ([4]; Table B1) [nM]	IC50 (TYK2; Table B1) [nM]	also measured
Cn1cncc1C(=O)Nc1ccc2cc1CCc1cccc(c1)Nc1ncc(Cl)c(n1)N2 [Example B51, N-[6-Chloro-2,4,8,22-tetraazatetracyclo[14.3.1.1(3,7).1(9,13)]docosa-1(20), 3(22),4,6,9(21),10,12,16,18-nonaen-12-yl]-1-methyl-1H-imidazole-5-carboxamide bis(trifluoroacetate)]	0.91	2.7	4.7	3.3	IC50 [3, 5]: 300 nM
CC(C)(C)NS(=O)(=O)c1cc2cc(c1)Nc1nc(ncc1Br)Nc1cccc(c1)CC2 [Example B17, 6-Bromo-N-(tert-butyl)-2,4,8,22-tetraazatetracyclo[14.3.1.1(3,7).1(9,13)]docosa-1(20),3(22),4,6,9(21),10,12,16,18-nonaene-11-sulfonamide trifluoroacetate]	11	71	126	152	IC50 [3, 5]: > 10000 nM
CC(C)S(=O)(=O)N1CCC(CC(=O)Nc2ccc3cc2CCc2cncc(c2)Nc2ncc(Cl)c(n2)N3)CC1 [Example A97, N-[6-Chloro-2,4,8,18,22-pentaazatetracyclo[14.3.1.1(3,7).1(9,13)]docosa-1(20),3(22),4,6,9(21),10,12,16,18-nonaen-12-yl]-2-[1-(isopropylsulfonyl)piperidin-4-yl]acetamide bis(trifluoroacetate)]					IC50 [1, 6]: 7.5 nM; IC50 [2, 7]: 3.9 nM; ALK % of inhibition at a concentration of 500 nM or 1 mM [3, 8]: 31%; IC50 [4, 9]: 34 nM; IC50 (TYK2): 11 nM
CN(Cc1ccc2cc1CCc1cncc(c1)Nc1ncc(Cl)c(n1)N2)C(=O)C1CCN(C(=O)Nc2ccccc2)CC1 [Example B337, N(4)-{[6-chloro-2,4,8,18,22-pentaazatetracyclo[14.3.1.1(3,7).1(9,13)]docosa-1(20),3(22),4,6,9(21),10,12,16,18-nonaen-12-yl]methyl}-N(4)-methyl-N(1)-phenylpiperidine-1,4-dicarboxamide bis(trifluoroacetate)]	171	41	> 200	> 200	ALK % of inhibition at a concentration of 500 nM or 1 mM ([3]; percentage inhibition of the example compound at a concentration of 500 nM or 1 mM (not specified which)): 21%
CC(C)(C)OC(=O)N1CCCC(NC(=O)Nc2ccc3cc2CCc2cccc(c2)Nc2ncc(Cl)c(n2)N3)C1 (stereo not shown) [Example B237, tert-Butyl 3-[({[6-chloro-2,4,8,22-tetraazatetracyclo[14.3.1.1(3,7).1(9,13)]docosa-1(20),3(22),4,6,9(21),10,12,16,18-nonaen-12-yl]amino}carbonyl)amino]piperidine-1-carboxylate]	18	7.9	122	16	ALK % of inhibition at a concentration of 500 nM or 1 mM [3, 10]: 6.2%
O=C(COc1ccc2cc1CCc1cccc(c1)Nc1ncc(Cl)c(n1)N2)N1CCN(C(=O)Nc2ccc(Cl)nc2)CC1 [Example A10, 4-(6-Chloropyridin-3-yl)-4-({[6-chloro-2,4,8,22-tetraazatetracyclo[14.3.1.1(3,7).1(9,13)]docosa-1(20),3(22),4,6,9(21),10,12,16,18-nonaen-12-yl]oxy}acetyl)piperazine-1-carboxamide bis(trifluoroacetate)]					IC50 [1, 6]: 21 nM; IC50 [2, 7]: 14 nM; ALK % of inhibition at a concentration of 500 nM or 1 mM [3, 8]: 5%; IC50 [4, 9]: 104 nM; IC50 (TYK2): 50 nM
Clc1cnc2nc1Nc1cccc(c1)SCCOc1cccc(c1)N2 [Example D11, 6-Chloro-17-oxa-14-thia-2,4,8,24-tetraazatetracyclo[16.3.1.1(3,7).1(9,13)]tetracosa-1(22),3(24),4,6,9(23),10,12,18,20-nonaene trifluoroacetate]					IC50 ([1]; Table D1): 5.4 nM; IC50 ([2]; Table D1): 3.4 nM; IC50 ([3]; Table D1, 90 μM ATP): 480 nM; IC50 ([4]; Table D1): 24 nM; IC50 (TYK2; Table D1): 9.9 nM
Cc1cccc(Cl)c1NC(=O)Nc1ccc2cc1CCc1cccc(c1)Nc1ncc(Cl)c(n1)N2 [Example B122, N-(2-Chloro-6-methylphenyl)-N′-[6-chloro-2,4,8,22-tetraazatetracyclo[14.3.1.1(3,7).1(9,13)]docosa-1(20),3(22),4,6,9(21),10,12,16,18-nonaen-12-yl]urea trifluoroacetate]	6.7	5.6	30	24	ALK % of inhibition at a concentration of 500 nM or 1 mM [3, 10]: 13%

From patent US8871753B2, “Macrocyclic compounds and their use as kinase inhibitors” (Incyte Corporation, priority 2008, dated 2014)
